Assay results as given in article PMC11254100 (Angewandte Chemie (International ed. in English), 2024).

Tested on: anti-HA mAb clone 12ca5
Format: binding

Substance | enrichment in affinity selection
cyclo(GDAGPYDADYA) | enriched
cyclo(GDVGPDAYDYA) | enriched
cyclo(GDVWALYASYA) | not enriched in the selection
